Assay results taken from the supplement of paper PMC10307832.

Tests used:
Test in all cases: relative viability (nuclei count vs DMSO), 5 days (fraction); higher = more cells survive
Neratinib + Bortezomib = compound: CCOc1cc2ncc(C#N)c(Nc3ccc(OCc4ccccn4)c(Cl)c3)c2cc1NC(=O)/C=C/CN(C)C [Neratinib] + CC(C)C[C@H](NC(=O)[C@H](Cc1ccccc1)NC(=O)c1cnccn1)B(O)O [Bortezomib] (partner 0.002 µM)
Procedure, shortened: (§1)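 Lung cancer cell lines were seeded in 1536-well plates and dosed by pin tool the next day, with either a single drug or a fixed anchor-drug dose combined with five library-drug doses (not always all listed) spaced in √10 steps. Five days later, one step fixed the cells and stained their nuclei (final 0.05% Triton X-100, 1% formaldehyde, 1 ug/ml Hoechst), and nuclei were counted on 4× images. Relative viability is the nuclei count in treated wells divided by the count in vehicle wells, and each value is the median of duplicate plates.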

Neratinib + Tozasertib = compound: CCOc1cc2ncc(C#N)c(Nc3ccc(OCc4ccccn4)c(Cl)c3)c2cc1NC(=O)/C=C/CN(C)C [Neratinib] + Cc1cc(Nc2cc(N3CCN(C)CC3)nc(Sc3ccc(NC(=O)C4CC4)cc3)n2)n[nH]1 [Tozasertib] (partner 0.1 µM)
Procedure, shortened: as §1

Neratinib + AZD7762 = compound: CCOc1cc2ncc(C#N)c(Nc3ccc(OCc4ccccn4)c(Cl)c3)c2cc1NC(=O)/C=C/CN(C)C [Neratinib] + NC(=O)Nc1cc(-c2cccc(F)c2)sc1C(=O)N[C@H]1CCCNC1 [AZD7762] (partner 0.2 µM)
Procedure, shortened: as §1

Neratinib + Decitabine = compound: CCOc1cc2ncc(C#N)c(Nc3ccc(OCc4ccccn4)c(Cl)c3)c2cc1NC(=O)/C=C/CN(C)C [Neratinib] + Nc1ncn([C@H]2C[C@H](O)[C@@H](CO)O2)c(=O)n1 [Decitabine] (partner 2 µM)
Procedure, shortened: as §1

Row | Cell Line | relative viability (Neratinib + Bortezomib; first compound 0.01 µM) | relative viability (Neratinib + Bortezomib; first compound 0.03162 µM) | relative viability (Neratinib + Bortezomib; first compound 0.1 µM) | relative viability (Neratinib + Bortezomib; first compound 0.3162 µM) | relative viability (Neratinib + Bortezomib; first compound 1 µM) | relative viability (Neratinib + Tozasertib; first compound 0.01 µM) | relative viability (Neratinib + Tozasertib; first compound 0.03162 µM) | relative viability (Neratinib + Tozasertib; first compound 0.1 µM) | relative viability (Neratinib + Tozasertib; first compound 0.3162 µM) | relative viability (Neratinib + Tozasertib; first compound 1 µM) | relative viability (Neratinib + AZD7762; first compound 0.01 µM) | relative viability (Neratinib + AZD7762; first compound 0.03162 µM) | relative viability (Neratinib + AZD7762; first compound 0.1 µM) | relative viability (Neratinib + AZD7762; first compound 0.3162 µM) | relative viability (Neratinib + AZD7762; first compound 1 µM) | relative viability (Neratinib + Decitabine; first compound 0.01 µM) | relative viability (Neratinib + Decitabine; first compound 0.03162 µM) | relative viability (Neratinib + Decitabine; first compound 0.1 µM) | relative viability (Neratinib + Decitabine; first compound 0.3162 µM) | relative viability (Neratinib + Decitabine; first compound 1 µM)
1 | H3255 | 0.776 | 0.97 | 0.556 | 0.225 | 0.233 | 0.759 | 0.721 | 0.423 | 0.233 | 0.236 | 1.01 | 0.824 | 0.588 | 0.288 | 0.247 | 0.548 | 0.471 | 0.454 | 0.218 | 0.245
2 | NCI-H838 | 0.921 | 1.12 | 0.729 | 0.627 | 0.328 | 0.274 | 0.291 | 0.241 | 0.267 | 0.22 | 0.944 | 1.08 | 0.968 | – | 0.78 | 0.459 | 0.514 | 0.456 | 0.463 | 0.464
3 | LCLC-103H | 1.18 | 1.1 | 0.905 | 1.16 | 1.1 | 0.44 | 0.503 | 0.502 | 0.511 | 0.365 | 0.818 | 0.812 | 0.655 | 0.857 | 0.68 | 0.772 | 0.8 | 0.585 | 0.761 | 0.7
4 | LOU-NH91 | 0.477 | 0.51 | 0.484 | 0.507 | 0.559 | 0.635 | 0.665 | 0.527 | 0.503 | 0.411 | 0.791 | 0.728 | 0.717 | 0.664 | 0.496 | 0.794 | 0.775 | 0.68 | 0.673 | 0.604
5 | NCI-H322M | 1.15 | 1.2 | 1.1 | 0.809 | 0.36 | 0.502 | 0.47 | 0.451 | 0.33 | 0.284 | 0.49 | 0.544 | 0.503 | 0.409 | 0.437 | 0.678 | 0.643 | 0.646 | 0.558 | 0.39
6 | NCI-H1651 | 1.07 | 1.13 | 0.86 | 0.902 | 0.852 | 0.743 | 0.792 | 0.543 | 0.58 | 0.312 | 0.503 | 0.521 | 0.416 | 0.328 | 0.246 | 0.63 | 0.663 | 0.391 | 0.585 | 0.543
7 | NCI-H2126 | 1.2 | 1.13 | 1.05 | 1.07 | 0.821 | 0.851 | 0.857 | 0.794 | 0.673 | 0.397 | 1.07 | 0.999 | 0.873 | 1 | 0.741 | 0.644 | 0.632 | 0.54 | 0.566 | 0.556
